{"source": "patent US11590110B2", "about": "“Compositions and methods for reactivating latent immunodeficiency virus using a GSK-3 inhibitor” (priority 2017, dated 2023)", "key": {"CD4+ T cells [1]": {"system": "CD4+ T cells", "experiment": "Example 5: lactate production analysis", "format": "cell-based, human", "procedure": "Subsequently, media of the treated samples were tested for production of L-lactated using a Glycolysis Cell-Based Assay Kit (Cayman Chemical). This test measures the quantity of formazan, an artificial chromogenic dye that results from the reduction of tetrazolium salts in the presence of NADH in the culture media. Colored formazan absorbs between 490 and 520 nm and can be detected by a plate reader. Since lactate dehydrogenase catalyzes the reaction between NAD+ and lactate, yielding pyruvate and NADH, which directly reduces the tetrazolium salt, the quantity of formazan produced is proportional to the quantity of L-lactate in the culture medium, and is thus an indirect measurement of glycolysis. In order to determine specific L-Lactate concentration, a standard curve was obtained analyzing absorbance of known concentration of L-lactate as indicated in the manufacturer's protocol."}, "[2]": {"system": "latent HIV-GFP reporter virus in resting CD4+ T cells from human tonsil", "experiment": "Example 6: lymphoid tissue model of HIV latency, HIV-GFP reporter, flow cytometry", "format": "cell-based", "conditions": "48 hours; for latency reversal by first-generation LRAs: bryostatin-1 10 nM, JQ1 100 nM, panobinostat 50 nM"}, "tonsil CD4+ T cells": {"system": "tonsil CD4+ T cells", "experiment": "Example 6: cell viability in tonsil CD4+ T cell cultures, Cell-Titer Blue", "conditions": "SB216763 10-1,000 nM, PMA 200 nM, panobinostat 50 nM; 48 hours"}, "NF-κB (p65)": {"system": "NF-κB (p65)", "experiment": "Example 5: NF-κB p65 nuclear translocation, western blot of nuclear extracts", "format": "cell-based, human", "conditions": "250 nM inhibitor with 1 μM tideglusib"}, "CD4+ T cells [3]": {"system": "CD4+ T cells", "experiment": "Example 5: GLUT1 surface expression, flow cytometry", "format": "cell-based, human", "conditions": "2 or 24 hours; 1 μM tideglusib; CD4+ T cells of three HIV-negative donors", "procedure": "(§1) Freshly isolated PBMCs or CD4^+ T cells were stained for viability, using the fixable viability dye Zombie violet (1:50, Biolegend) according to the manufacturer's recommendation. Surface staining was performed with the following antibodies at 1:100 dilutions: CD3-PE-Cy7, CD4-APC-Cy7, CD69-FITC, CD25-PE (all 1:100, Biolegend), and Glut-1-Ax647 (BD Bioscience, 566580) in staining buffer for 20 min on ice and cells were fixed in 1% PFA-containing PBS. All flow analysis was performed on the LSRII (BD Biosciences) using FlowJo software (v.10.4.2). Color compensations were performed using single-stained samples for each of the fluorochromes used. Data were analyzed using FlowJo software (TreeStar, San Carlos, Calif.).\nChanges to the metabolism of resting CD4^+ T-cells by tideglusib were studied. […] […]."}, "[4]": {"system": "latent HIV-1 in blood CD4+ T cells from infected individuals on suppressive ART", "format": "cell-based"}, "CD4+ T cells [5]": {"system": "CD4+ T cells", "experiment": "Example 5: CD4+ T cell viability, Cell Titer Blue assay", "format": "cell-based, human", "conditions": "48 hours; for CD4+ T-cell viability: SB-216763 and tideglusib 10/100/1000 nM, bryostatin-1 10 nM", "procedure": "25 μl from each well/treatment were incubated with Cell Titer Blue reagent (Promega) for 3 to 4 hours at 37° C. The assay is based on the ability of living cells to convert a redox dye (resazurin) into a fluorescent end product (resorufin). Colorimetric analysis of treated cells was done with a Perkin Elmer EnSpire 2300 Multimode plate reader set to detect fluorescence (Ex:579 nm/Em:584 nm)."}, "CD4+ T cells [6]": {"system": "CD4+ T cells", "experiment": "Example 5: surface expression of activation markers CD69 and CD25, flow cytometry", "format": "cell-based, human", "conditions": "48 hours", "procedure": "as §1"}, "CD4+ T cells [7]": {"system": "CD4+ T cells", "experiment": "Example 5: cytokines release assay (V-PLEX pro-inflammatory panel)", "format": "cell-based, human", "conditions": "48 hours; culture supernatant of CD4+ T cells", "procedure": "Supernatant was collected from the treated cell cultures described above and stored at −80° C. for later analysis. Supernatant cytokine levels were determined using a V-PLEX Proinflammatory Panel 1 (human) Kit (#K15049D-1) and a V-PLEX IL-17A Gen. B (human) (#K151WMD) from Meso Scale Discovery, following the manufacturer's protocol. The assay was done on undiluted supernatant samples in order to increase the sensitivity of the assay."}, "patient CD4+ T cells": {"system": "patient CD4+ T cells", "conditions": "human, 48 h"}, "GSK-3": {"system": "GSK-3", "conditions": "cited from earlier work"}, "[8]": {"system": "latent HIV in CD4+ T cells of HIV-infected patients on suppressive anti-retroviral therapy", "experiment": "Example 7: reversal of HIV latency in patient CD4+ T cells, extracellular viral RNA by digital droplet PCR"}, "[9]": {"system": "patient-derived CD4+ T cells", "conditions": "as shown in PCT/US2016/64614; cited from earlier work"}, "CD8+ T cells": {"system": "CD8+ T cells", "experiment": "Example 5: CD8 T-cell viability and cytotoxic effector functions", "format": "cell-based, human", "conditions": "48 hours; 50 nM", "procedure": "After drug treatment, human PBMCs were cultured in complete RPMI in the presence of CD107a-BV650 (1:50, 328637, BioLegend) or CD107a-FITC antibodies (1:50, 555800, BD Bioscience) and PMA/ionomycin (50 ng/ml and 1 uM) dor 3.5 hours, adding Brefeldin A and Monensin (eBioscience) for the last hour. Cells were subsequently stained for viability using the viability dyes eFluor 506, (eBioscience) according to the provided protocol. After surface marker staining with the following antibodies (all at 1:100 dilution): CD3-APC-H7 (560176; BD Biosciences), CD8-V450 (560347; BD Biosciences), CD45RA-APC (17-0458; eBioscience), and CCR7-PE-Cy7 (557648; BD Biosciences), cells were permeabilized and fixed using the Foxp3/Transcription Factor Fixation/Permeabilization Concentrate and Diluent kit (eBioscience). Intracellular staining was performed with IFN-γ-PerCP-Cy5.5 antibody (1:100, 560704, BD Bioscience) in FOXP3 perm/wash buffer for 1 h at 4° C. After washing and fixation of the cells in 1% paraformaldehyde/PBS, cells were analyzed by flow cytometry. Final data stems from having gated on CD8hi- and CD8lo-expressing T cells."}, "NK cells": {"system": "NK cells", "experiment": "Example 5: NK cell viability and cytotoxic effector functions", "format": "cell-based, human", "conditions": "48 hours; 50 nM", "procedure": "Density centrifugation using a Ficoll-Hypaqua gradient was performed to purify PBMCs from continuous-flow centrifugation leukapheresis product. Subsequently, cells were plated in 96-well U-bottom plated in complete RPMI, which was supplemented with 10 ng/ml recombinant IL-15 (R&D systems), treated with LRAs or vehicle controls (DMSO) and incubated at 37° C., 5% CO2 for 48 h. To assay NK cell functionality, cells were analyzed by flow cytometry. Briefly, 1×10^6 cells/200 ul were stained with FITC anti-CD107 antibodies (1:50, BD Biosciences), mixed with 1×10^5 K562 cells and incubated at 37° C., 5% CO2 for 1 h. Then, in order to enhance intracellular cytokine staining, protein transport was blocked with Brefeldin A (Sigma-Aldrich) and golgi stop (BD Biosciences) according to the manufacturer instructions and the cells were incubated at 37° C., 5% CO2 for another 5 h. Afterwards, cells were spun down (5 min, 330×g, RT), the supernatant was removed and the cells were stained using Zombie violet (1:50, Biolegend) according to the manufacturer protocol. Subsequently, cells were stained for surface proteins staining with the following antibodies: APC/Cy7 anti CD3 (1:100, Biolegend), APC anti CD14 (1:100, Biolegend), APC anti CD19 (1:100, Biolegend), PE/Cy7 anti CD56 (1:100, BD Biosciences), Alexa Fluor 700 anti CD16 (1:100, Biolegend), PE anti CD7 (1:50, Thermo Fisher Scientific) for 15 min at room temperature. Next, cells were permeabilized and fixed using the Foxp3/Transcription Factor Fixation/Permeabilization Concentrate and Diluent kit (eBioscience) and stained intracellularly with PerCP/Cy5 anti IFN-γ (1:50, BD Bioscience) in FOXP3 perm/wash buffer for 1 h at 4° C. Finally, cells were washed and fixed in 1% paraformaldehyde/PBS, and subjected to flow cytometry analysis on a LSRII (BD Biosciences). Data were obtained using FlowJo software (Treestar). Samples were gated for singlets, live, CD3 negative, CD14/CD19 negative and CD7 positive cells as previously described (York, Milush). CD16high/CD56dim, CD16dim/CD56high cells were considered for analysis of IFN-γ and CD107a positivity. All gates were defined, based on fluorescence minus one (FMO) samples."}, "[10]": {"system": "patient-derived CD4+ T cells", "conditions": "as shown in PCT/US2016/64614; cited from earlier work", "remark": "listed apart in the source"}, "[11]": {"conditions": "10 nM, 48 hours, relative to untreated control"}}, "note": "“Also recorded” adds a separate entry of the source. Where two headings read alike, the source gives them in different places.", "data": [{"smiles": "O=CC[C@@H](O)[C@H](O)[C@H](O)CO", "note": "[2-DG, 2-deoxy-D-glucose]", "values": [{"measurement": "L-lactate production in treated and untreated samples", "setting": "CD4+ T cells [1]; 50 mM, 24 hours", "result": "dramatically reduced L-lactate production"}]}, {"smiles": "Cc1sc2c(c1C)C(c1ccc(Cl)cc1)=N[C@@H](CC(=O)OC(C)(C)C)c1nnc(C)n1-2", "note": "[JQ-1]", "values": [{"measurement": "latency reversal by first-generation LRAs", "setting": "[2]", "result": "only minimal latency reversal"}]}, {"smiles": "CCCCCCCCCCCCCC(=O)O[C@@H]1[C@@H](C)[C@@]2(O)[C@@H](C=C(CO)C[C@]3(O)C(=O)C(C)=C[C@@H]23)[C@@H]2C(C)(C)[C@]12OC(C)=O", "note": "[PMA, phorbol 12-myristic13-acetate]", "values": [{"measurement": "cell viability relative to untreated cells", "setting": "tonsil CD4+ T cells", "result": "clear toxicity; also recorded: toxicity was observed"}]}, {"smiles": "CC(C)n1nc(-c2cc3cc(O)ccc3[nH]2)c2c(N)ncnc21", "note": "[PP242]", "values": [{"measurement": "effect of co-treatment on tideglusib-mediated p65 nuclear translocation", "setting": "NF-κB (p65)", "result": "less reduction in nuclear translocation"}, {"measurement": "GLUT1 surface expression over the untreated control", "setting": "CD4+ T cells [3]", "result": "did not significantly alter expression of GLUT1"}]}, {"smiles": "Cn1cc(C2=C(c3ccc(Cl)cc3Cl)C(=O)NC2=O)c2ccccc21", "note": "[SB-216763, 3-(2,4-Dichlorophenyl)-4-(1-methyl-1H-indol-3-yl)-1H-pyrrole-2,5-dione]", "values": [{"measurement": "virus-associated HIV-1 mRNA, mean fold-change", "setting": "[4]", "result": "[…]"}, {"measurement": "CD4+ T-cell viability", "setting": "CD4+ T cells [5]", "result": "does not reduce viability"}, {"measurement": "surface expression of the activation markers CD69 or CD25", "setting": "CD4+ T cells [6]", "result": "no increase"}, {"measurement": "production and release of pro-inflammatory cytokines", "setting": "CD4+ T cells [7]", "result": "does not induce T cell activation or cytokine production"}, {"measurement": "L-lactate in the culture media", "setting": "CD4+ T cells [1]; 24 hours of treatment", "result": "did not result in an increase of L-lactate"}, {"measurement": "induction of the GFP reporter over unstimulated", "setting": "[2]; doses between 100-1000 nM", "result": 90, "unit": "fold"}, {"measurement": "toxicity based on cell-titer blue testing", "setting": "patient CD4+ T cells", "result": "Neither tideglusib nor SB216763 induced toxicity"}, {"measurement": "IC50", "setting": "GSK-3", "result": "[…]"}, {"measurement": "latency reversing activity, in words", "setting": "[8]; at equivalent doses", "result": "comparable activity"}, {"measurement": "subjects that did not respond", "setting": "[8]; highest dose", "result": "3 of 14"}]}, {"smiles": "CCOC(=O)C1=C(N)Oc2ccc(Cl)cc2C1C(C#N)C(=O)OCC", "note": "(stereo not drawn) [SC79, 2-amino-6-chloro-α-cyano-3-(ethoxycarbonyl)-4H-1-benzopyran-4-acetic acid ethyl ester]", "values": [{"measurement": "release of virions in the culture supernatant", "setting": "[4]; 48 hours, CD4+ T cells from five HIV-positive participants, SC79 10/100/1000 nM", "result": "increased release of virions"}]}, {"smiles": "CCC/C=C/C=C/C(=O)O[C@H]1/C(=C/C(=O)OC)C[C@H]2C[C@H]([C@@H](C)O)OC(=O)C[C@H](O)C[C@@H]3C[C@H](OC(C)=O)C(C)(C)[C@](O)(C[C@@H]4C/C(=C/C(=O)OC)C[C@H](/C=C/C(C)(C)[C@]1(O)O2)O4)O3", "note": "[bryostatin-1]", "values": [{"measurement": "virus-associated HIV-1 mRNA, mean fold-change", "setting": "[4]; [11]", "result": 574.4, "unit": "fold"}, {"measurement": "virus-associated HIV-1 mRNA, median value", "setting": "[4]; [11]", "result": 5.086, "unit": "fold"}, {"measurement": "CD4+ T-cell viability", "setting": "CD4+ T cells [5]", "result": "minimal decrease"}, {"measurement": "CD69 surface expression", "setting": "CD4+ T cells [6]; 10 nM", "result": "markedly increased"}, {"measurement": "production and release of pro-inflammatory cytokines", "setting": "CD4+ T cells [7]", "result": "release of IFN-γ, IL-6, IL-13"}, {"measurement": "latency reversal by first-generation LRAs", "setting": "[2]", "result": "only minimal latency reversal"}, {"measurement": "activation marker expression with known latency-reversing agent", "setting": "[9]", "result": "increase in activation marker expression"}]}, {"smiles": "Cc1[nH]c2ccccc2c1CCNCc1ccc(/C=C/C(=O)NO)cc1", "note": "[panobinostat]", "values": [{"measurement": "cell death of CD4+ T cells", "setting": "CD4+ T cells [5]; 50 nM", "result": "~50", "unit": "%"}, {"measurement": "reduction of total CD8+ T cells", "setting": "CD8+ T cells", "result": "approximately 40%"}, {"measurement": "reduction of total NK cells", "setting": "NK cells", "result": "approximately 60%"}, {"measurement": "toxicity of known latency-reversing agent", "setting": "[10]", "result": "highly toxic"}]}]}
